These results are taken from patent publication US8158621B2, “Methods of treating or preventing autoimmune diseases with 2,4-pyrimidinediamine compounds” (Rigel Pharmaceuticals, Inc., priority 2002, dated 2012).

Each structure is given as a SMILES string. Values joined by “and” are separate entries in the source; they are usually repeats but may differ in a detail not shown here. Equal entries are not always repeated.

The subject of the first experiment is cultured human mast cells (CHMC). In words: CHMC low cell density IgE activation: tryptase assay. Type of experiment: cell-based. The note with it: low cell density; read-out: CHMC anti-IgE Tryptase. The method, boiled down:
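Read-out: tryptase released into supernatant, measured by substrate turnover over 30 min at RT. Low-density CHMC (1000-1500 cells/well, per donor degranulation activity) in MT buffer, 1 hr at 37° C, then anti-IgE challenge 30 min at 37° C.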
With `COc1ccc(Nc2nc(Nc3ccc4cc[nH]c4c3)ncc2F)cc1Cl` [Compound R926976], the IC50 is 305 nM.

As to `Cn1ncc2ccc(Nc3ncc(F)c(Nc4ccc5c(c4)NC(=O)C(C)(C)O5)n3)cc21` [Compound R940366], the IC50 amounted to 37 nM.

The test system is the same in the next experiment. In words: CHMC low cell density ionomycin activation: tryptase assay. Format: cell-based. The note with it: low cell density; read-out: CHMC Ionomycin Tryptase.
For the compound `COc1ccc(Nc2nc(Nc3ccc4cc[nH]c4c3)ncc2F)cc1Cl` [Compound R926976], the IC50 was determined as 8300 nM.

`Cn1ncc2ccc(Nc3ncc(F)c(Nc4ccc5c(c4)NC(=O)C(C)(C)O5)n3)cc21` [Compound R940366]: the IC50 worked out at 40000 nM.

The test system of another experiment is bone marrow derived mast cells (BMMC). In words: BMMC high cell density IgE activation: hexosaminidase. Format: cell-based, mouse. The note with it: high cell density; read-out: BMMC anti-IgE Hexos.
Take `COc1ccc(Nc2nc(Nc3ccc4cc[nH]c4c3)ncc2F)cc1Cl` [Compound R926976]: the IC50 is 590 nM.

For `Cn1ncc2ccc(Nc3ncc(F)c(Nc4ccc5c(c4)NC(=O)C(C)(C)O5)n3)cc21` [Compound R940366], the IC50 stood at 30 nM.

Another experiment shares this test system. In words: BMMC high cell density IgE activation: TNFalpha. Type of experiment: cell-based, mouse. The note with it: high cell density; read-out: BMMC anti-IgE TNF-alpha. The protocol:
(§1) After sensitizing, cells are counted, pelleted (1000 rpm, 5-10 minutes), and resuspended at 1-3×10^6 cells/ml in MT buffer. Add 100 ul of cell suspension to each well and 100 ul of compound dilutions. The final vehicle concentration is 0.5% DMSO. Incubate at 37° C. (5% CO2) for 1 hour. After 1 hour of compound treatment, stimulate cells with 6× stimulus (60 ng/ml DNP-BSA). Mix wells with the cells and allow plates to incubate at 37° C. (5% CO2) for one hour. After 1 hour incubation, pellet cells (10 minutes, 1000 RPM) and collect 200 ul per well of the supernatant, being careful not to disturb pellet, and transfer to a clean tube or 96-well plate. Place the supernatant plate on ice. During the 4-5 hour step (see next) perform the hexosiminidase assay. Resuspend cell pellet in 240 ul WEI-conditioned media containing 0.5% DMSO and corresponding concentration of compound. Incubate BMMC cells for 4-5 hours at 37° C. (5% CO2). After incubation, pellet cells (1000 RPM, 10 minutes) and collect 225 ul per well and place in −80° C. until ready to perform ELISAS. ELISAS are performed on appropriately diluted samples (determined empirically for each donor cell population so that the sample measurement falls within the standard curve) following the supplier's instructions.
Turning to `COc1ccc(Nc2nc(Nc3ccc4cc[nH]c4c3)ncc2F)cc1Cl` [Compound R926976], the IC50 turned out to be 110 nM.

Take `Cn1ncc2ccc(Nc3ncc(F)c(Nc4ccc5c(c4)NC(=O)C(C)(C)O5)n3)cc21` [Compound R940366]: the IC50 was 5 nM.

For the next experiment the test system is unchanged. In words: BMMC high cell density IgE activation: IL-6. Type of experiment: cell-based, mouse. Conditions: high cell density; read-out: BMMC anti-IgE IL-6. The protocol:
as §1
On to `COc1ccc(Nc2nc(Nc3ccc4cc[nH]c4c3)ncc2F)cc1Cl` [Compound R926976], for which the IC50 is 250 nM.

As for `Cn1ncc2ccc(Nc3ncc(F)c(Nc4ccc5c(c4)NC(=O)C(C)(C)O5)n3)cc21` [Compound R940366], the IC50 amounted to 10 nM.

The target in another experiment is T1, Syk kinase (Homo sapiens, UniProt P43405).
T1 construct: purchased Upstate, Lake Placid NY
In words: Syk kinase biochemical fluorescence polarization assay. The note with it: isolated Syk kinase, fluorescence polarization, 4 uM ATP.
The compound `COc1ccc(Nc2nc(Nc3ccc4cc[nH]c4c3)ncc2F)cc1Cl` [Compound R926976] had an IC50 of 421 nM.

`Cn1ncc2ccc(Nc3ncc(F)c(Nc4ccc5c(c4)NC(=O)C(C)(C)O5)n3)cc21` [Compound R940366] yielded an IC50 of 3 nM.

System in another experiment: not listed separately
As to the kind of experiment: Mouse Reverse Passive Arthus reaction (RPA reaction). Format: in vivo, C57BL/6 mice. The note with it: oral, 200 mg/kg, 60 minutes prior to challenge. The method, boiled down:
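C57BL/6 mice dosed with compound before challenge, pretreatment time set by each compound's PK; rabbit anti-OVA IgG (50 μg/mouse) given intradermally, then ovalbumin 20 mg/kg i.v. with 1% Evans blue. Dorsal skin edema and hemorrhage read by dye extravasation at 4 h; purified polyclonal rabbit IgG as control.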
Consider `CNC(=O)COc1cccc(Nc2ncc(F)c(Nc3ccc(OC)c(Cl)c3)n2)c1` [Compound R926891], for which the “inhibition of edema formation” value was 54.9%.

The same experiment, now with this note: oral, 200 mg/kg, pretreatment time 0.5 hrs.
`CNC(=O)COc1cccc(Nc2ncc(F)c(Nc3ccc(OC)c(Cl)c3)n2)c1` [Compound R926891]: the “% inhibition to vehicle control Edema Size ± SEM” value is 44.8 ± 3.0%.

The experiment is the same for the next values; noted with them: oral, 200 mg/kg, pretreatment time 1 hrs.
Take `CNC(=O)COc1cccc(Nc2ncc(F)c(Nc3ccc(OC)c(Cl)c3)n2)c1` [Compound R926891]: the “% inhibition to vehicle control Edema Size ± SEM” value is 46.2 ± 4.1% and 54.9%.

Staying with this experiment, now noted: oral, 200 mg/kg, pretreatment time 1.5 hrs.
Turning to `CNC(=O)COc1cccc(Nc2ncc(F)c(Nc3ccc(OC)c(Cl)c3)n2)c1` [Compound R926891], the “% inhibition to vehicle control Edema Size ± SEM” value worked out at 28.1 ± 10.6%.

In another experiment the test system is Human Jurkat T-cells (clone N). In words: Jurkat T-cell activation (anti-TCR, CD69 upregulation). Type of experiment: cell-based.
Settings: not given
The method, boiled down: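 Readout is CD69 upregulation by flow cytometry (anti-CD69-APC, 20 min at 4 °C) after 20 h anti-TCR (C305, 500 ng/ml) stimulation at 37 °C.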
In turn, `CNC(=O)COc1cccc(Nc2ncc(F)c(Nc3ccc(OC)c(Cl)c3)n2)c1` [Compound R926891] returned an IC50 of 1550 nM.

On to `Cn1ncc2ccc(Nc3ncc(F)c(Nc4ccc5c(c4)NC(=O)C(C)(C)O5)n3)cc21` [Compound R940366], for which the IC50 was 86 nM.

The subject of another experiment is Primary human B-cells. As to the kind of experiment: Primary B-cell activation (α-IgM, CD69 upregulation). Conditions: read-out: 1° B-Cell CD69 IC50. Type of experiment: cell-based. As for the experimental part: Primary human B-cells were isolated from buffy coat, the white cell layer that forms between the red cells and the […] when anti-coagulated blood is centrifuged, or from fresh blood using CD19-Dynal® beads and a FACS. Buffy coat was obtained from the Stanford Medical School Blood Centre, prepared on the same day by the blood bank, stored and transported cold (with ice). The buffy coat (approx 35 mL) was placed in a 500 mL conical sterile centrifuge pot and cooled on ice, then diluted with cold PBS containing 0.2% BSA (Sigma: A7638) and sodium citrate (0.1%, Sigma: S-5570) (P—B—C) to a total volume of 200 mL and mixed gently. Fresh blood was collected from donors in 10 mL vacutainers containing heparin (1 vacutainer collects approximately 8.5 mL blood). The blood was cooled on ice, transferred into 50 mL falcon tubes (20 mL/tube) or a 500 mL conical sterile centrifuge pot, and diluted with an equal volume P—B—C.
25 mL diluted blood or buffy coat was layered onto 15 mL cold ficoll and placed back on ice. The ficoll layered blood was centrifuged (Beckman GS-6R) for 45 minutes at 2000 rpm, 4° C. to separate the Peripheral Blood Mononuclear Cells (PBMC) from the Red Blood Cells (RBC) and granulocytes. The top aqueous layer was then aspirated until 1 inch above the PBMC layer. The PBMCs were transferred from every 2 ficoll tubes into one clean 50 mL falcon tube (=approx 10 mL/tube). The transferred PBMCs were diluted 5× with icecold PBS with 0.2% BSA (P—B) and centrifuged for 20 min at 1400 rpm and 4° C. The supernatant (this may be cloudy) was then aspirated and the PBMCs resuspended into 25 mL P—B and the cells counted (using a 1:5 dilution) and kept on ice.
The cells were then positively selected using anti-CD 19 antibody coupled to magnetic beads (Dynal®) as per manufacturer's instructions. The approximate required amount of CD19-Dynal® beads (CD19-coated dyna beads M-450 (pabB), Dynal®) was calculated by estimating the number of B-cells as 5% of PBMCs counted and adding approximately10 beads per cell from the bead stock (4×10^8 beads/mL). The CD19-Dynal® beads were washed 2× in P—B in a 5 mL tube using the Dynal® magnet, then added into the suspended PBMCs. This mixture was then passed through the Dynal® magnet and washed several times to separate the bead-bound cells.
After separation, the beads and antibody were removed using Dynal® CD19-DETACHaBEAD® for 45 min at 30° C. Yield is typically 2×10^7 B-cells per buffy coat. B-cells were washed and resuspended as 1E6 cells/mL in RPMI1640+10% FBS+Penicillin/[…]+1 ng/mL IFNα8. Cells were rested overnight at 37° C. and 5% CO2.
The following day, cells were washed and resuspended in RPMI+2.5% FBS to 1×10^6 cells/mL. Cells were then aliquoted into a V-bottom 96-well plate (Corning) at 65 uL cells per well. By robot, 65 uL of a 2× compound was added to the cells with final concentration of DMSO at 0.2%, and incubated for 1 hr at 37° C. Cells were then stimulated with 20 uL 7.5× α-IgM from Jackson laboratories (final 5 ug/mL) for 24 hrs. At day 3, the cells were spun down and stained for CD69 and analyzed by FACS gated on the live cells (by light scatter).
Varied concentrations of compound were compared to solvent only to determine the inhibition of B-cell activation IC50 of each compound.
`CNC(=O)COc1cccc(Nc2ncc(F)c(Nc3ccc(OC)c(Cl)c3)n2)c1` [Compound R926891]: the IC50 was 803 nM.

For another experiment, the system named is differentiated human macrophages. As to the kind of experiment: Macrophage activation, IgG stimulation: TNF. Type of experiment: cell-based. The note with it: stimulus (IgG or LPS) not given; read-out: Monocytes/Macrophage TNF IC50. The protocol: Purity was assessed by measuring the percentage of CD14+ cells by flow cytometry.
A negative control consisting of the F(ab′)2 fragment was also coated to assess background stimulation. Unbound antibody was washed away 2× with 200 ul PBS. […] The cells were incubated for 16 hr in a 37° C. incubator, and supernatants were collected for Luminex analysis for IL-6 and TNFα, essentially as described for the primary T-cells, above.
For the compound `CNC(=O)COc1cccc(Nc2ncc(F)c(Nc3ccc(OC)c(Cl)c3)n2)c1` [Compound R926891], the IC50 came out at 1140 nM.

On to `COc1ccc(Nc2nc(Nc3ccc4cc[nH]c4c3)ncc2F)cc1Cl` [Compound R926976], for which the IC50 is 4370 nM.

Consider `Cn1ncc2ccc(Nc3ncc(F)c(Nc4ccc5c(c4)NC(=O)C(C)(C)O5)n3)cc21` [Compound R940366], for which the IC50 amounted to 86 nM.

Another experiment has the same test system. As to the kind of experiment: Macrophage activation, IgG stimulation: IL-6. The note with it: stimulus (IgG or LPS) not given; read-out: Monocytes/Macrophage IL-6 IC50. Format: cell-based. The protocol: CD 14+ monocytes were purified from PBMC (Allcells # PB002) using the Monocyte Isolation kit (Miltenyi biotec #130-045-501) as per the manufacturer's instructions. Purity was assessed by measuring the percentage of CD14+ cells by flow cytometry. Typically >90% purity is achieved. The purified CD14+ cells are then plated out (6×10^6 cells/150 cm TC dish in 15 mls media) in Macrophage-SFM (Gibco #12065-074) with 100 ng/ml of M-CSF (Pepro Tech #300-25) and allowed to differentiate for five days. At the end of that period, cell morphology and cell surface markers (CD14, HLA-DR, B7.1, B7.2, CD64, CD32, and CD16) reflected the presence of mature differentiated macrophage.
A negative control consisting of the F(ab′)2 fragment was also coated to assess background stimulation. Unbound antibody was washed away 2× with 200 ul PBS. 20 ul of 5× compound was added to each well, followed by the addition 15 k cells of differentiated macrophage in 80 uL that had been scraped off of the plates. The cells were incubated for 16 hr in a 37° C. incubator, and supernatants were collected for Luminex analysis for IL-6 and TNFα, essentially as described for the primary T-cells, above.
Varied concentrations of compound were compared to solvent only to determine the IC50 of each compound for each cytokine Representative IC50 s for 2,4-pyrimidinediamine compounds of the invention are shown in Table 11.
On to `CNC(=O)COc1cccc(Nc2ncc(F)c(Nc3ccc(OC)c(Cl)c3)n2)c1` [Compound R926891], for which the IC50 was determined as 942 nM.

As to `COc1ccc(Nc2nc(Nc3ccc4cc[nH]c4c3)ncc2F)cc1Cl` [Compound R926976], the IC50 turned out to be 7620 nM.

As for `Cn1ncc2ccc(Nc3ncc(F)c(Nc4ccc5c(c4)NC(=O)C(C)(C)O5)n3)cc21` [Compound R940366], the IC50 was determined as 97 nM.
